Laboratory results from US4021557A, “11-Aminoalkyl-pyridobenzodiazepinones and salts thereof” (Boehringer Ingelheim GmbH, priority 1974, dated 1977).

Tests used:
[1] = tested on: acetylcholine-induced bronchospasm; assay: Antagonism to acetylcholine-provoked bronchospasm in anesthetized guinea pigs (Konzett and Rossler), i.v.; antiasthmatic / bronchospasmolytic activity; type: in vivo; conditions: guinea pig; for ED50: Cavia porcellus, iv, 20γ acetylcholine per kg i.v., graphic extrapolation, read-out: Bronchospasmolytic ED50 against acetylcholine-induced bronchospasm
Description: The antiasthmatic activity was tested as the antagonism to bronchospasm provoked by intravenous administration of 20γ of acetylcholine per kg body weight in anesthetized guinea pigs (according to method of Konzett and Rossler). From the average percentage decrease of the bronchospasm produced by administering various doses of the compounds of the […] invention an ED50 was determined by graphic extrapolation. The compounds were administered intravenously.

heart rate = assay: Effect on heart rate of the anesthetized cat after intravenous administration; type: in vivo; set-up: key to type of the reaction (heart rate): --: decrease in heart rate; conditions: i.v.; for ED10 (dose leading to a 10% alteration of the heart rate) / ED25 (dose leading to a 25% alteration of the heart rate): graphic extrapolation; for type of the reaction (heart rate): tested dosage range 250 - 4,000 γ/kg (A 12.5 - 16,000; W 125 - 4,000)
Description: The effect on the heart rate was tested on cats of both sexes (body weight between 2.3 and 3.5 kg) under chloralose-urethane anesthesia. The heart rate was continuously registered by means of a Grass-tachograph 7P4, controlled by the R-wave of the electrocardiogram. The test compound was injected through a catheter introduced into the vena femoralis.

[2] = Acute toxicity after i.v. administration in NMRI-mice (Litchfield and Wilcoxon); conditions: mouse, in vivo, iv, both sexes, deaths within 14 days, read-out: LD50 in the mouse after i.v. application
Description: The acute toxicity was determined with NMRI-mice of both sexes (body weight 20 gm) after intravenous administration of the compound. 0.1 ml of a 0.9% sodium chloride solution per 10gm of animal was used as the vehicle.

quantity of secretion = assay: Expectorant (secretolytic) activity in anesthetized guinea pigs (Perry et al, modified by Engelhorn et al), oral; type: in vivo; conditions: guinea pig, over 2 hours
Description: The expectorant activity was ascertained by the method of Perry et al, J. Pharmcol. exp. Therap. 73, 65 (1941), as modified by Engelhorn et al, Arzneim. Forsch. 21, 1045 (1971), on male guinea pigs (body weight from 450 to 550 gm), which has been anesthetized by intraperitoneal injection of a 25% urethane solution (1.0 gm/kg). The test compound was administered orally at the indicated dosage levels, each in 2 ml of distilled water, by means of an esophageal tube. 5 tests per dose. The increase in secretion was calculated from the quantity of fluid secreted over a period of 2 hours after administration of the test compound, as compared to the quantity secreted without administration of the test compound.

Compound | ED50 [1] [mg/kg] | Average duration of effective action in the ED50 range [1] [min] | ED10 (dose leading to a 10% alteration of the heart rate) (heart rate) | ED25 (dose leading to a 25% alteration of the heart rate) (heart rate) | type of the reaction (heart rate) (heart rate) | LD50 at 336 h [2] [mg/kg] | percent change in quantity of secretion (increase) (quantity of secretion; dose 0.5 γ/kg) [%] | percent change in quantity of secretion (increase) (quantity of secretion; dose 5 γ/kg) [%]
CCN(CC)CCCN1c2ccccc2N(C)C(=O)c2cccnc21.Cl [A, 11-(3'-diethylamino-n-propyl)-6,11-dihydro-6-methyl-5H-pyrido[2,3-b][1,5]benzodiazepin-5-one hydrochloride] | 0.031 | > 130 | 2,100 γ/kg | > 16,000 γ/kg | -- | 62.3 | 80 | 114
CC(C)N(CCCN1c2ccccc2N(C)C(=O)c2cccnc21)C(C)C.Cl [J, 6,11-dihydro-11-(3'-diisopropylamino-n-propyl)-6-methyl-5H-pyrido[2,3-b][1,5]benzodiazepin-5one hydrochloride] | 0.0165 | 50 | 1,950 γ/kg | > 4,000 γ/kg | -- | 22.6 | 108 | 
CCN(CCCN1c2ccccc2N(C)C(=O)c2cccnc21)C(C)C.Cl [K, 11-[3'-(n-ethyl-N-isopropyl-amino)-n-propyl]-6,11-dihydro-6-methyl-5H-pyrido[2,3-b][1,5]benzodiazepin-5-one hydrochloride] | 0.02 | > 80 | 1,350 γ/kg | > 4,000 γ/kg | -- | 30 | 113 | 
CN1C(=O)c2ccccc2N(CCCN2CCCCC2)c2ncccc21.Cl [V, 5,11-dihydro-5-methyl-11-(3'-piperidino-n-propyl)-6H-pyrido[2,3-b][1,4]benzodiazepin-6-one hydrochloride] | 0.18 | > 110 | 1,100 γ/kg | > 4,000 γ/kg | -- | 13.4 |  | 
CN1C(=O)c2ccccc2N(CCCN2CCCCCC2)c2ncccc21.Cl [W, 5,11-dihydro-11-(3'-hexamethyleneimino-n-propyl)-5-methyl-6H-pyrido[2,3-b][1,4]benzodiazepin-6-one hydrochloride] | 0.215 | > 40 | 1,200 γ/kg | > 4,000 γ/kg | -- | 13.4 |  | 
